Reference: paper PMC6321230, “Metabolic Stability and Metabolite Characterization of Capilliposide B and Capilliposide C by LC–QTRAP–MS/MS” (Pharmaceutics, 2018)

Assays:
HepG2 cells = system: HepG2 cells; set-up: method as in PMID 26678180; conditions: cited from earlier work
[1] = set-up: method as in PMID 27859436; conditions: mouse, after intravenous dosing of LC-B; cited from earlier work
[2] = mouse, microsomes
[3] = set-up: method as in PMID 27521984; conditions: intravenous administration; cited from earlier work
ovarian carcinoma A-2780 = system: ovarian carcinoma A-2780; set-up: method as in PMID 16595968, PMID 24554216; conditions: cited from earlier work
prostate cancer PC3 = system: prostate cancer PC3; set-up: method as in PMID 16595968, PMID 24554216; conditions: cited from earlier work
DU145 cells = system: DU145 cells; set-up: method as in PMID 16595968, PMID 24554216; conditions: cited from earlier work
[4] = set-up: method as in PMID 24313264; conditions: oral administration; cited from earlier work
[5] = Metabolic stability in mouse liver microsomes; conditions: for in vitro t1/2 in mouse liver microsomes: MLM 0.5 mg/mL, NADPH, 37 °C, substrate 1.0 μM (midazolam 0.5 μM)
[6] = set-up: method as in PMID 26678180; conditions: cited from earlier work
[7] = system: esophageal squamous carcinoma cells; set-up: method as in PMID 28463955; conditions: cotreatment of LC-C and oxaliplatin; cited from earlier work
[8] = Metabolic stability in rat liver microsomes; conditions: pH 7.4
[9] = Metabolic stability in human liver microsomes; conditions: pH 7.4

CC1(C)C[C@@H]2[C@@]3([C@H](O)C[C@]4(C)[C@@]2(CC[C@@H]2[C@@]5(C)CC[C@H](O[C@@H]6OC[C@H](O[C@@H]7O[C@H](CO)[C@@H](O)[C@H](O)[C@H]7O[C@@H]7OC[C@@H](O)[C@H](O)[C@H]7O)[C@H](O)[C@H]6O[C@@H]6O[C@H](CO)[C@@H](O)[C@H](O)[C@H]6O)C(C)(C)[C@@H]5CC[C@]24C)O[C@@H]3O)[C@@H](O)C1 [LC-A, Capilliposide A]
cytotoxicity against HepG2 cells (HepG2 cells): significant cytotoxicity | main site of tissue distribution [1]: mainly distributed in mouse liver

CCCCCC(=O)O[C@H]1CC(C)(C)C[C@@H]2[C@@]13[C@H](O)C[C@]1(C)[C@@]2(CC[C@@H]2[C@@]4(C)CC[C@H](O[C@@H]5OC[C@H](O[C@@H]6O[C@H](CO)[C@@H](O)[C@H](O)[C@H]6O[C@@H]6OC[C@@H](O)[C@H](O)[C@H]6O)[C@H](O)[C@H]5O[C@@H]5O[C@H](CO)[C@@H](O)[C@H](O)[C@H]5O)C(C)(C)[C@@H]4CC[C@]21C)O[C@H]3O [LC-B, Capilliposide B]
degradation in MLM regardless of the presence of NADPH [2]: obvious degradation | degradation in MLM with esterase inhibitor dichlorvos [2]: remarkably inhibited | recovery in rat excreta [3]: less than 10% | cytotoxicity against A-2780 (ovarian carcinoma A-2780): significant cytotoxicities | cytotoxicity against PC3 (prostate cancer PC3): significant cytotoxicities | cytotoxicity against DU145 (DU145 cells): significant cytotoxicities | bioavailability [4]: poor bioavailability | exposure in tissues [4]: low exposure in tissues | in vitro t1/2 in mouse liver microsomes [5]: 27.7 min

CC1(C)C[C@H](O[C@@H]2O[C@H](CO)[C@@H](O)[C@H](O)[C@H]2O)[C@@]23[C@H](O)C[C@]4(C)[C@@](CC[C@@H]5[C@@]6(C)CC[C@H](O[C@@H]7OC[C@H](O[C@@H]8O[C@H](CO)[C@@H](O)[C@H](O)[C@H]8O[C@@H]8OC[C@@H](O)[C@H](O)[C@H]8O)[C@H](O)[C@H]7O[C@@H]7O[C@H](CO)[C@@H](O)[C@H](O)[C@H]7O)C(C)(C)[C@@H]6CC[C@]54C)(O[C@@H]2O)[C@@H]3C1 [LC-C, Capilliposide C]
degradation in MLM regardless of the presence of NADPH [2]: obvious degradation | degradation in MLM with esterase inhibitor dichlorvos [2]: remarkably inhibited | fraction metabolized in intestinal microflora [6]: 92.7% | cytotoxicity against A-2780 (ovarian carcinoma A-2780): significant cytotoxicities | cytotoxicity against PC3 (prostate cancer PC3): significant cytotoxicities | cytotoxicity against DU145 (DU145 cells): significant cytotoxicities | bioavailability [4]: poor bioavailability | exposure in tissues [4]: low exposure in tissues | chemosensitizing effect of cotreatment with oxaliplatin [7]: chemosenstizing effect | in vitro t1/2 in mouse liver microsomes [5]: 63.0 min

Cc1ncc2n1-c1ccc(Cl)cc1C(c1ccccc1F)=NC2 [midazolam, Midazolam]
half-life at 0.5 μM [8]: 2.35 min | half-life at 0.5 μM [9]: 3.73 min | half-life at 0.5 μM ([5]; mouse, microsomes, pH 7.4): 3.85 min
